Data on 19 compounds can be found in patent US20240360165A1, “INHIBITORS OF CYCLIN DEPENDENT KINASE 7 (CDK7)” (Syros Pharmaceuticals, Inc., priority 2016, published 2024).

The target of assay [1] is CDK7/Cyclin H/MAT1 complex (Homo sapiens, UniProt P50613). Description: CDK7 inhibition assay (Caliper/LabChip EZ Reader kinase assay). It is filed as biochemical. The settings on record: Table 1; CDK7/Cyclin H/MAT1 6 nM, ATP 2 mM, 35 min at 27° C. The procedure, abridged:
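A Perkin Elmer Caliper/LabChip EZ Reader (Waltham, MA) platform served as the basis for this CDK7 kinase inhibition assay. The work was carried out by Biortus Biosciences, located in Jiangyin, Jiangsu Province, P.R. of China. Each CDK studied had its own kinase assay, and compounds were evaluated for their ability to block CDK7 activity.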

A further assay deals with CDK9/Cyclin T1 complex (Homo sapiens, UniProt P50750). Put plainly: CDK9 inhibition assay (Caliper/LabChip EZ Reader kinase assay). Type of assay: biochemical. The settings on record: Table 1; CDK9/Cyclin T1 8 nM, ATP 2 mM, 15 min at 27° C. The procedure, abridged: (§1)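 Caliper/LabChip EZ Reader mobility-shift assays. CDK9/Cyclin T1 at 8 nM with 2 μM 5-FAM-CDK9tide peptide and 10 mM MgCl2; CDK2/Cyclin E1 at 0.5 nM with 2 μM 5-FAM-CDK7tide and 2 mM MgCl2.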

For the next assay, the system named is A673 cells. Description: Inhibition of proliferation of A673 cells (CyQUANT, 72 hour). It is filed as cell-based, human. The settings on record: A673 cells, 72 hour, CyQUANT, read-out: Inhibition of Proliferation of A673 Cells (calculated IC50). The procedure, abridged: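 Human Ewing's sarcoma A673 cells in DMEM with 10% FBS and 1 mM sodium pyruvate, 37° C, 5% CO2, treated 72 h with compound from 4 μM to […] (0.5 log dilutions). Antiproliferative effect read by CyQUANT assay.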

The target of assay [2] is T1, CDK12 (aa686-1082)/Cyclin K complex (Homo sapiens, UniProt Q9NYV4).
T1 construct: CDK12 (aa686-1082)/Cyclin K complex
Put plainly: CDK12 inhibition assay (Caliper/LabChip EZ Reader kinase assay). Type of assay: biochemical. The settings on record: Table 1; CDK12 (aa686-1082)/Cyclin K 50 nM, ATP 2 mM, 3 hr at 27° C.

Another assay addresses CDK2/Cyclin E1 complex (Homo sapiens, UniProt P24941). Description: CDK2 inhibition assay (Caliper/LabChip EZ Reader kinase assay). It is filed as biochemical. The settings on record: Table 1; CDK2/Cyclin E1 0.5 nM, ATP 2 mM, 35 min at 27° C. Put shortly:
as §1

Where two headings read alike, the source gives them in different places.

Sequence of CDK9/Cyclin T1 complex (P50750 whole entry, species assumed): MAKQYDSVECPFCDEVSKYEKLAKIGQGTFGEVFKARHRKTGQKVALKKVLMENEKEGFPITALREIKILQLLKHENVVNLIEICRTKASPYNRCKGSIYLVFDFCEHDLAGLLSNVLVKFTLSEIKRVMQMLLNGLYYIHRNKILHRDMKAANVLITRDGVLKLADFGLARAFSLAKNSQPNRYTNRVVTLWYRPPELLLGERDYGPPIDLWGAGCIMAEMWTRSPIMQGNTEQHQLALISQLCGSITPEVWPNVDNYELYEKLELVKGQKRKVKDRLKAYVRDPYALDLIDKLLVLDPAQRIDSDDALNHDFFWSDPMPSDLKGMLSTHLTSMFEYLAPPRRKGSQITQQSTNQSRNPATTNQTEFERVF
Sequence of CDK9/Cyclin T1 complex (O60563 whole entry partner, species assumed): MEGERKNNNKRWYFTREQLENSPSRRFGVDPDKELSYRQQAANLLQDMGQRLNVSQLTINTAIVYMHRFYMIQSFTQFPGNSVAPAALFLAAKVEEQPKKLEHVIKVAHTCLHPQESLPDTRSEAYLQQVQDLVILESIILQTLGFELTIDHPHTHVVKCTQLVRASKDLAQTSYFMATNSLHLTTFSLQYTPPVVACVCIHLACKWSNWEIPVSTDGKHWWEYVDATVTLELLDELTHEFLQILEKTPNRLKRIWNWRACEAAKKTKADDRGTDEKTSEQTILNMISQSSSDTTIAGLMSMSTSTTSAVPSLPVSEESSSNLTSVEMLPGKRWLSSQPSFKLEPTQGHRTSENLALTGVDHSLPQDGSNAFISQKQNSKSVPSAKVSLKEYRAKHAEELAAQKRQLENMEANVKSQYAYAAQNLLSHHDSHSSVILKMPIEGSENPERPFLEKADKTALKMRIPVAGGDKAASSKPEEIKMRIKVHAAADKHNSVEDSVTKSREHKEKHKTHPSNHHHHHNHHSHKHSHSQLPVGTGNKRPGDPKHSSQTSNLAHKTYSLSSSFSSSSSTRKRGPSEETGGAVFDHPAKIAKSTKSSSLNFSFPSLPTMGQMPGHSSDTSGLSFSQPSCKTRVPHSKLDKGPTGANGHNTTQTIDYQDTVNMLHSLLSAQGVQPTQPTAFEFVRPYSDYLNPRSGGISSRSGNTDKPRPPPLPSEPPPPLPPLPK
Sequence of CDK7/Cyclin H/MAT1 complex (P50613 whole entry, species assumed): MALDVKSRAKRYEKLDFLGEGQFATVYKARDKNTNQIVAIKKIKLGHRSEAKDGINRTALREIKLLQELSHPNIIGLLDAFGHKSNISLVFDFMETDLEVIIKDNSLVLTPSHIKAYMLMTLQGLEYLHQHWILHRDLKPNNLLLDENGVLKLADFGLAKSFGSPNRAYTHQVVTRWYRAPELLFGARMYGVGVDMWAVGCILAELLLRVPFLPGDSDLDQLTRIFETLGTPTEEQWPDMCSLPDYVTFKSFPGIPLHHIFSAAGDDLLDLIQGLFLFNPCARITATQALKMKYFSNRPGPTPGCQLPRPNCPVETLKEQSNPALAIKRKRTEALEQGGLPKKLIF
Sequence of CDK7/Cyclin H/MAT1 complex (P51946 whole entry partner, species assumed): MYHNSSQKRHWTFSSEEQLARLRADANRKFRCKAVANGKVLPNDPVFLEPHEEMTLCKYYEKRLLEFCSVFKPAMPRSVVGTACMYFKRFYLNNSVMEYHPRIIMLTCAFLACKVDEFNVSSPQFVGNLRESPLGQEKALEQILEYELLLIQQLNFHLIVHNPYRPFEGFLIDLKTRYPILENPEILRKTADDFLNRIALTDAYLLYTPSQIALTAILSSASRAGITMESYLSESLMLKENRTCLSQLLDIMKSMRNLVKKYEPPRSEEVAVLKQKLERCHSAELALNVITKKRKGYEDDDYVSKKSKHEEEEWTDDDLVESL
Sequence of CDK7/Cyclin H/MAT1 complex (P51948 whole entry partner, species assumed): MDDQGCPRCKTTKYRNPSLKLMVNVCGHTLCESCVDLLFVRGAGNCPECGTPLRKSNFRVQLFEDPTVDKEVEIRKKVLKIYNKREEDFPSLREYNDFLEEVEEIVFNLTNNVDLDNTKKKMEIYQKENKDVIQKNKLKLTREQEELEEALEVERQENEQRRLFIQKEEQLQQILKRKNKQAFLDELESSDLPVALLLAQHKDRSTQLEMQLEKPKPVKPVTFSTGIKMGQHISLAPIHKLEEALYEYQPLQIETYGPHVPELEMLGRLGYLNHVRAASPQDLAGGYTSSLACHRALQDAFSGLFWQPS
T1 sequence (Q9NYV4 686-1082, species assumed): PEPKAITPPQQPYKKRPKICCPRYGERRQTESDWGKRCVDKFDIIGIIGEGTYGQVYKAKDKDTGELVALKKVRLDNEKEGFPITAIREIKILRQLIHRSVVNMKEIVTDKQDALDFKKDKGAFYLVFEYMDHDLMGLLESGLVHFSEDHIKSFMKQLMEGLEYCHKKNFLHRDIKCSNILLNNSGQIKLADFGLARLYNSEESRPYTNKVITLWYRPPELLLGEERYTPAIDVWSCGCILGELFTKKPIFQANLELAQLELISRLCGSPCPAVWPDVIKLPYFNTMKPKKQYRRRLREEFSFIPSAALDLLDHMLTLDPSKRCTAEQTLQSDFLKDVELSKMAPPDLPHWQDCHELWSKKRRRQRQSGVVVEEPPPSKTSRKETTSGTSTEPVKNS
T1 sequence (O75909 whole entry partner, species assumed, the tested form may be a part): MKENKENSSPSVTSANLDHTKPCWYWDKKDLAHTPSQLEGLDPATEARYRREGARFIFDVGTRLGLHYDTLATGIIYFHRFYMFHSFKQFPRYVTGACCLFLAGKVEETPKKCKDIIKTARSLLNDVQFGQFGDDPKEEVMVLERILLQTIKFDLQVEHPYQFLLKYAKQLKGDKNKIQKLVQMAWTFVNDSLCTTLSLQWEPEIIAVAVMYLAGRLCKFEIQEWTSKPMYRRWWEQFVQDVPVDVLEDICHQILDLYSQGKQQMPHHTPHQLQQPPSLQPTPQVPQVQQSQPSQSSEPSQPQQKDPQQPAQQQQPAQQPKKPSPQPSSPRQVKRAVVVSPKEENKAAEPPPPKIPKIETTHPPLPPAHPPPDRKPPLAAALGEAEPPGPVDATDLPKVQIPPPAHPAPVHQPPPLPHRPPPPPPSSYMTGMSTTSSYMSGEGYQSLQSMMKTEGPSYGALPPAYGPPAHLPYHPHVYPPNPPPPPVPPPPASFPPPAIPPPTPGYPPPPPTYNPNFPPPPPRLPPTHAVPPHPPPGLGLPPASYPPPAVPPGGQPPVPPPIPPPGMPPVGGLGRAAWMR

For the compound `O=C([C@H]1CC[C@H](Nc2ncc(C(F)(F)F)c(-c3c[nH]c4ccccc34)n2)CN1)N1CCCC1` [Compound 228], the IC50 in assay [1] is below 20 nM; on CDK9/Cyclin T1 complex, 200 to 5000 nM; in the assay with A673 cells (Homo sapiens, A673, 72 h), 20 to 200 nM; in assay [2], 200 to 5000 nM; against CDK2/Cyclin E1 complex, 200 to 5000 nM.
Regarding `Cc1n[nH]cc1-c1ccc2c(-c3nc(N[C@H]4CCCNC4)ncc3C(F)(F)F)c[nH]c2c1` [Compound 229, 4-[6-(3-methyl-1H-pyrazol-4-yl)-1H-indol-3-yl]-N-[(3S)-3-piperidyl]-5-(trifluoromethyl) pyrimidin-2-amine], the IC50 in assay [1] is below 20 nM; against CDK9/Cyclin T1 complex it was 200 to 5000 nM; in the assay with A673 cells (Homo sapiens, A673, 72 h), below 20 nM; in assay [2] it was 200 to 5000 nM; at CDK2/Cyclin E1 complex it was 200 to 5000 nM.
Turning to `FC(F)(F)c1cnc(N[C@H]2CCCNC2)nc1-c1c[nH]c2cc(-c3ccnnc3)ccc12` [Compound 230, N-[(3S)-3-piperidyl]-4-(6-pyridazin-4-yl-1H-indol-3-yl)-5-(trifluoromethyl) pyrimidin-2-amine], the IC50 was below 20 nM in assay [1]; 200 to 5000 nM on CDK9/Cyclin T1 complex; 20 to 200 nM in the assay with A673 cells (Homo sapiens, A673, 72 h); 200 to 5000 nM in assay [2]; 200 to 5000 nM against CDK2/Cyclin E1 complex.
Regarding `CCc1cnc(-c2c[nH]c3ncc(F)cc23)nc1N[C@H]1CCCNC1` [Compound 231, 5-ethyl-2-(5-fluoro-1H-pyrrolo [2,3-b]pyridin-3-yl)-N-[(3S)-3-piperidyl] pyrimidin-4-amine], the IC50 in assay [1] was above 5000 nM; at CDK9/Cyclin T1 complex it was above 5000 nM; in the assay on A673 cells (Homo sapiens, A673, 72 h) it was 200 to 5000 nM; in assay [2], above 5000 nM; against CDK2/Cyclin E1 complex it was above 5000 nM.
In the case of `N#Cc1cc(-c2ccc3c(-c4nc(N[C@H]5CCCNC5)ncc4C(F)(F)F)c[nH]c3c2)c[nH]1` [Compound 233, 4-[3-[2-[[(3S)-3-piperidyl]amino]-5-(trifluoromethyl)pyrimidin-4-yl]-1H-indol-6-yl]-1H-pyrrole-2-carbonitrile], the IC50 was below 20 nM in assay [1]; 200 to 5000 nM against CDK9/Cyclin T1 complex; 20 to 200 nM in the assay on A673 cells (Homo sapiens, A673, 72 h); 200 to 5000 nM in assay [2]; 200 to 5000 nM against CDK2/Cyclin E1 complex.
For `Cc1nc(-c2ccc3c(-c4nc(N[C@H]5CCCNC5)ncc4C(F)(F)F)c[nH]c3c2)n[nH]1` [Compound 235], the IC50 is below 20 nM in assay [1]; 200 to 5000 nM on CDK9/Cyclin T1 complex; 200 to 5000 nM with A673 cells (Homo sapiens, A673, 72 h); 200 to 5000 nM in assay [2]; 200 to 5000 nM against CDK2/Cyclin E1 complex.
`FC1(F)CNC[C@@H](Nc2ncc(C(F)(F)F)c(-c3c[nH]c4ccccc34)n2)C1` [Compound 236, N-[(3S)-5,5-difluoro-3-piperidyl]-4-(1H-indol-3-yl)-5-(trifluoromethyl) pyrimidin-2-amine]: the IC50 in assay [1] was below 20 nM; on CDK9/Cyclin T1 complex, 200 to 5000 nM; in the assay with A673 cells (Homo sapiens, A673, 72 h), 20 to 200 nM; in assay [2], 200 to 5000 nM; at CDK2/Cyclin E1 complex, 200 to 5000 nM.
Consider `CC(C)(O)CCc1ccc2c(-c3nc(N[C@H]4CCCNC4)ncc3C(F)(F)F)c[nH]c2c1` [Compound 242, 2-methyl-4-[3-[2-[[(3S)-3-piperidyl]amino]-5-(trifluoromethyl)pyrimidin-4-yl]-1H-indol-6-yl] butan-2-ol], for which the IC50 is 20 to 200 nM in assay [1]; 200 to 5000 nM at CDK9/Cyclin T1 complex; 20 to 200 nM in the assay with A673 cells (Homo sapiens, A673, 72 h); 200 to 5000 nM in assay [2]; above 5000 nM against CDK2/Cyclin E1 complex.
For `CC1(C)CNC[C@@H](Nc2ncc(C(F)(F)F)c(-c3c[nH]c4ccccc34)n2)C1` [Compound 243, N-[(3S)-5,5-dimethyl-3-piperidyl]-4-(1H-indol-3-yl)-5-(trifluoromethyl) pyrimidin-2-amine], the IC50 is below 20 nM in assay [1]; 200 to 5000 nM at CDK9/Cyclin T1 complex; below 20 nM with A673 cells (Homo sapiens, A673, 72 h); 20 to 200 nM in assay [2]; 200 to 5000 nM against CDK2/Cyclin E1 complex.
Consider `Cc1nc(-c2ccc3c(-c4nc(N[C@H]5CCCNC5)ncc4C(F)(F)F)c[nH]c3c2)nn1C` [Compound 245, 4-[6-(1,5-dimethyl-1,2,4-triazol-3-yl)-1H-indol-3-yl]-N-[(3S)-3-piperidyl]-5-(trifluoromethyl) pyrimidin-2-amine], for which the IC50 was below 20 nM in assay [1]; above 5000 nM against CDK9/Cyclin T1 complex; 20 to 200 nM with A673 cells (Homo sapiens, A673, 72 h); 200 to 5000 nM in assay [2]; 200 to 5000 nM against CDK2/Cyclin E1 complex.
Turning to `COC(C)c1cnc(N[C@H]2CCCNC2)nc1-c1c[nH]c2ccccc12` (some centres unmarked) [Compound 247], the IC50 is 200 to 5000 nM in assay [1]; above 5000 nM against CDK9/Cyclin T1 complex; 200 to 5000 nM in the assay on A673 cells (Homo sapiens, A673, 72 h); above 5000 nM in assay [2]; above 5000 nM against CDK2/Cyclin E1 complex.
On to `N#Cc1cn(-c2ccc3c(-c4nc(NC5CCCNC5)ncc4C(F)(F)F)c[nH]c3c2)cn1` (centres unmarked) [Compound 249], for which the IC50 in assay [1] was below 20 nM; on CDK9/Cyclin T1 complex, above 5000 nM; in the assay on A673 cells (Homo sapiens, A673, 72 h) it was 20 to 200 nM; in assay [2], 200 to 5000 nM; at CDK2/Cyclin E1 complex, above 5000 nM.
Turning to `CNC(=O)[C@@H]1CNC[C@@H](Nc2ncc(C(F)(F)F)c(-c3c[nH]c4ccccc34)n2)C1` [Compound 256], the IC50 in assay [1] was 20 to 200 nM; on CDK9/Cyclin T1 complex, above 5000 nM; in the assay on A673 cells, 200 to 5000 nM; in assay [2], 200 to 5000 nM; against CDK2/Cyclin E1 complex, 200 to 5000 nM.
For the compound `N#Cc1ccc2c(-c3nc(N[C@H]4CCCNC4)ncc3C(F)(F)F)c[nH]c2c1C#N` [Compound 258, 3-[2-[[(3S)-3-piperidyl]amino]-5-(trifluoromethyl)pyrimidin-4-yl]-1H-indole-6,7-dicarbonitrile], the IC50 in assay [1] is below 20 nM; on CDK9/Cyclin T1 complex, 200 to 5000 nM; in the assay with A673 cells (Homo sapiens, A673, 72 h), 20 to 200 nM; in assay [2] it was 200 to 5000 nM; against CDK2/Cyclin E1 complex it was 200 to 5000 nM.
With `CC(C)C1CCC(Nc2ncc(C(F)(F)F)c(-c3c[nH]c4ccccc34)n2)CN1` (centres unmarked) [Compound 260], the IC50 in assay [1] was 200 to 5000 nM; against CDK9/Cyclin T1 complex it was above 5000 nM; with A673 cells (Homo sapiens, A673, 72 h) it was 200 to 5000 nM; in assay [2] it was 200 to 5000 nM; against CDK2/Cyclin E1 complex, above 5000 nM.
In the case of `CCc1cnc(N[C@H]2CCCNC2)nc1-c1n[nH]c2ncccc12` [Compound 262, 5-ethyl-N-[(3S)-3-piperidyl]-4-(1H-pyrazolo[3,4-b]pyridin-3-yl)pyrimidin-2-amine], the IC50 in assay [1] is below 20 nM; against CDK9/Cyclin T1 complex it was 200 to 5000 nM; with A673 cells (Homo sapiens, A673, 72 h), 20 to 200 nM; in assay [2] it was 200 to 5000 nM; against CDK2/Cyclin E1 complex, 200 to 5000 nM.
Take `CS(=O)(=O)c1cccn2c([C@H]3CCC[C@@H](Nc4ncc(C(F)(F)F)c(-c5c[nH]c6ccccc56)n4)C3)nnc12` [Compound 265, 4-(1H-indol-3-yl)-N-[(1R,3S)-3-(8-methylsulfonyl-[1,2,4]triazolo [4,3-a]pyridin-3-yl)cyclohexyl]-5-(trifluoromethyl) pyrimidin-2-amin]: the IC50 was 200 to 5000 nM in assay [1]; 200 to 5000 nM against CDK9/Cyclin T1 complex; 20 to 200 nM with A673 cells (Homo sapiens, A673, 72 h); 200 to 5000 nM in assay [2]; 200 to 5000 nM against CDK2/Cyclin E1 complex.
Turning to `FC(F)(F)c1cnc(N[C@H]2CNC[C@@H](c3nnc4ccccn34)C2)nc1-c1c[nH]c2ccccc12` [Compound 268], the IC50 in assay [1] was 200 to 5000 nM; at CDK9/Cyclin T1 complex, above 5000 nM; in the assay with A673 cells, 200 to 5000 nM; in assay [2], 200 to 5000 nM; against CDK2/Cyclin E1 complex, above 5000 nM.
With `CCc1cnc(N[C@H]2CCCNC2)nc1-c1c[nH]c2cc(S(C)(=O)=O)ccc12` [Compound 271], the IC50 in assay [1] was 20 to 200 nM; on CDK9/Cyclin T1 complex, above 5000 nM; in the assay with A673 cells (Homo sapiens, A673, 72 h), 200 to 5000 nM; in assay [2], above 5000 nM; on CDK2/Cyclin E1 complex, above 5000 nM.
